# Like-named read-outs stand apart in the source and are kept apart here.
# Test system: metastatic or surgically unresectable urothelial cancer harboring select FGFR genetic alterations
# Details: Total (all 3 regimens), chemo relapsed/refractory
# Text: The study comprises a Screening Phase (molecular screening at any time prior to first dose and study screening within 30 days of first dose), a treatment phase, and a post-treatment follow-up phase. The treatment phase comprises the period from first dose until the end-of-treatment visit. The follow-up phase extends until the subject has died, withdraws consent, is lost to follow-up, or the end of study, whichever comes first.
# Included patients were adults with measurable urothelial cancer per Response Evaluation Criteria in Solid Tumors version 1.1.
# Patients were required to have at least 1 FGFR2/FGFR3 mutation or fusion per central lab testing of RNA from formalin-fixed, paraffin-embedded tumor samples, using a custom reverse transcriptase polymerase chain reaction assay.
# Patients were contacted every 12 weeks for survival assessment.
# The study was designed to enroll 180 patients with specified FGFR alterations. Of these, ≥88 were required in the selected regimen. […] Responses were assessed by investigators and an independent radiological review committee. Progression-free survival and overall survival were estimated using Kaplan-Meier product limit method. Data from patients who were progression free and alive or with unknown status were censored at last tumor assessment. Efficacy end points were analysed at primary analysis cut-off.
# [1] = FGFR mutations and fusions, n=7
# [2] = Fusion: FGFR2-CASP7/FGFR3-BAIAP2L1, n=1
# [3] = Fusion: FGFR2-CASP7/FGFR3-TACC3 V3, n=1
# [4] = Mutation and fusion: FGFR3-G370C/FGFR2-BICC1, n=1
# [5] = Mutation and fusion: FGFR3-G370C/FGFR3-TACC3 V1, n=1
# [6] = Mutation and fusion: FGFR3-R248C/FGFR3-S249C/FGFR3-TACC3 V1, n=1
# [7] = Mutation and fusion: FGFR3-R248C/FGFR3-TACC3 V1, n=2
# [8] = Mutation and fusion: FGFR3-S249C/FGFR3-BAIAP2L1, n=1
# [9] = Mutation and fusion: FGFR3-S249C/FGFR3-Y373C/FGFR2-CASP7/FGFR3-BAIAP2L1/FGFR3-TACC3 V1/FGFR3-TACC3 V3, n=1
# [10] = Mutation: FGFR3-G370C/FGFR3-S249C, n=2
# [11] = Mutation: FGFR3-R248C/FGFR3-Y373C, n=2
# [12] = Mutation: FGFR3-S249C/FGFR3-Y373C, n=1
structure (smiles),measurement,setting,value
"COc1cc(OC)cc(N(CCNC(C)C)c2ccc3ncc(-c4cnn(C)c4)nc3c2)c1 [erdafitinib, N-(3,5-dimethoxy-phenyl)-N′-(1-methylethyl)-N-[3-(1-methyl-1H-pyrazol-4-yl)quinoxalin-6-yl]ethane-1,2-diamine]",Confirmed partial response (PR),[1],3 (42.9%)
same,Disease control rate (CR + PR + SD),[1],5 (71.4%)
same,Inevaluable,[1],1 (14.3%)
same,Objective response rate (CR + PR),[1],4 (57.1%)
same,Progressive disease (PD),[1],1 (14.3%)
same,Confirmed complete response (CR),[2],0%
same,Confirmed partial response (PR),[2],0%
same,Disease control rate (CR + PR + SD),[2],1 (100.0%)
same,Inevaluable,[2],0%
same,Objective response rate (CR + PR),[2],0%
same,Progressive disease (PD),[2],0%
same,Confirmed complete response (CR),[3],0%
same,Confirmed partial response (PR),[3],0%
same,Disease control rate (CR + PR + SD),[3],0%
same,Inevaluable,[3],1 (100.0%)
same,Objective response rate (CR + PR),[3],0%
same,Progressive disease (PD),[3],0%
same,Confirmed complete response (CR),[4],1 (100.0%)
same,Confirmed partial response (PR),[4],0%
same,Disease control rate (CR + PR + SD),[4],1 (100.0%)
same,Inevaluable,[4],0%
same,Objective response rate (CR + PR),[4],1 (100.0%)
same,Progressive disease (PD),[4],0%
same,Confirmed complete response (CR),[5],0%
same,Confirmed partial response (PR),[5],1 (100.0%)
same,Disease control rate (CR + PR + SD),[5],1 (100.0%)
same,Inevaluable,[5],0%
same,Objective response rate (CR + PR),[5],1 (100.0%)
same,Progressive disease (PD),[5],0%
same,Confirmed complete response (CR),[6],0%
same,Confirmed partial response (PR),[6],1 (100.0%)
same,Disease control rate (CR + PR + SD),[6],1 (100.0%)
same,Inevaluable,[6],0%
same,Objective response rate (CR + PR),[6],1 (100.0%)
same,Progressive disease (PD),[6],0%
same,Confirmed complete response (CR),[7],0%
same,Confirmed partial response (PR),[7],1 (50.0%)
same,Disease control rate (CR + PR + SD),[7],1 (50.0%)
same,Inevaluable,[7],1 (50.0%)
same,Objective response rate (CR + PR),[7],1 (50.0%)
same,Progressive disease (PD),[7],0%
same,Confirmed complete response (CR),[8],0%
same,Confirmed partial response (PR),[8],0%
same,Disease control rate (CR + PR + SD),[8],0%
same,Inevaluable,[8],0%
same,Objective response rate (CR + PR),[8],0%
same,Progressive disease (PD),[8],1 (100.0%)
same,Confirmed complete response (CR),[9],0%
same,Confirmed partial response (PR),[9],0%
same,Disease control rate (CR + PR + SD),[9],1 (100.0%)
same,Inevaluable,[9],0%
same,Objective response rate (CR + PR),[9],0%
same,Progressive disease (PD),[9],0%
same,Confirmed complete response (CR),[10],0%
same,Confirmed partial response (PR),[10],1 (50.0%)
same,Disease control rate (CR + PR + SD),[10],2 (100.0%)
same,Inevaluable,[10],0%
same,Objective response rate (CR + PR),[10],1 (50.0%)
same,Progressive disease (PD),[10],0%
same,Confirmed complete response (CR),[11],0%
same,Confirmed partial response (PR),[11],2 (100.0%)
same,Disease control rate (CR + PR + SD),[11],2 (100.0%)
same,Inevaluable,[11],0%
same,Objective response rate (CR + PR),[11],2 (100.0%)
same,Progressive disease (PD),[11],0%
same,Confirmed complete response (CR),[12],0%
same,Confirmed partial response (PR),[12],0%
same,Disease control rate (CR + PR + SD),[12],1 (100.0%)
same,Inevaluable,[12],0%
same,Objective response rate (CR + PR),[12],0%
same,Progressive disease (PD),[12],0%
